# Test results reported in PubChem BioAssay (NCI).
#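 Results reflect a 48-hour exposure of cells in 96-well plates to compound at five concentrations. Abbreviation: GI50, concentration required for 50% inhibition of growth. TGI: total growth inhibition.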
# Assays:
# Experiment in all cases: NCI anticancer screen, dose series, 48 h
# HOP-62 NSCLC = test system: HOP-62 NSCLC
# SF-295 CNS = test system: SF-295 CNS
# MDA-MB-231 breast = test system: MDA-MB-231 breast
# COLO 205 colon = test system: COLO 205 colon
# RPMI-8226 leukemia = test system: RPMI-8226 leukemia
# MALME-3M melanoma = test system: MALME-3M melanoma
# SK-MEL-2 melanoma = test system: SK-MEL-2 melanoma
# SK-OV-3 ovarian = test system: SK-OV-3 ovarian
# SN12C renal = test system: SN12C renal
# SF-539 CNS = test system: SF-539 CNS
# PC-3 prostate = test system: PC-3 prostate
# KM12 colon = test system: KM12 colon
# SW-620 colon = test system: SW-620 colon
# NCI-H460 lung = test system: NCI-H460 lung
# EKVX NSCLC = test system: EKVX NSCLC
# BT-549 breast = test system: BT-549 breast
# NCI-H23 lung = test system: NCI-H23 lung
# SK-MEL-28 melanoma = test system: SK-MEL-28 melanoma
# UO-31 renal = test system: UO-31 renal
# NCI-H522 lung = test system: NCI-H522 lung
# HOP-92 NSCLC = test system: HOP-92 NSCLC
# MOLT-4 leukemia = test system: MOLT-4 leukemia
# OVCAR-5 ovarian = test system: OVCAR-5 ovarian
# UACC-257 melanoma = test system: UACC-257 melanoma
# SF-268 CNS = test system: SF-268 CNS
# SNB-19 CNS = test system: SNB-19 CNS
# HS 578T breast = test system: HS 578T breast
# TK-10 renal = test system: TK-10 renal
# K-562 leukemia = test system: K-562 leukemia
# A498 renal = test system: A498 renal
# HL-60(TB) leukemia = test system: HL-60(TB) leukemia
# SK-MEL-5 melanoma = test system: SK-MEL-5 melanoma
# HCC-2998 colon = test system: HCC-2998 colon
# MDA-MB-435 = test system: MDA-MB-435
# RXF 393 renal = test system: RXF 393 renal
# NCI-H226 lung = test system: NCI-H226 lung
# U251 CNS = test system: U251 CNS
# NCI/ADR-RES ovarian = test system: NCI/ADR-RES ovarian
# DU-145 prostate = test system: DU-145 prostate
# CAKI-1 renal = test system: CAKI-1 renal
# SR leukemia = test system: SR leukemia
# OVCAR-4 ovarian = test system: OVCAR-4 ovarian
# M14 melanoma = test system: M14 melanoma
# LOX IMVI melanoma = test system: LOX IMVI melanoma
# HCT-116 colon = test system: HCT-116 colon
# 786-0 renal = test system: 786-0 renal
# MCF7 breast = test system: MCF7 breast
# CCRF-CEM leukemia = test system: CCRF-CEM leukemia
# ACHN renal = test system: ACHN renal
# IGROV1 ovarian = test system: IGROV1 ovarian
# SNB-75 CNS = test system: SNB-75 CNS
# HCT-15 colon = test system: HCT-15 colon
# OVCAR-8 ovarian = test system: OVCAR-8 ovarian
# A549 NSCLC = test system: A549 NSCLC
# UACC-62 melanoma = test system: UACC-62 melanoma
# HT29 colon = test system: HT29 colon
# T-47D breast = test system: T-47D breast
smiles,measurement,setting,value
Oc1ccc(CSc2nnc(-c3cnccn3)o2)c2cccnc12,GI50,HOP-62 NSCLC,449 nM
same,TGI,HOP-62 NSCLC,> 100000 nM
same,GI50,SF-295 CNS,364 nM
same,TGI,SF-295 CNS,> 100000 nM
same,GI50,MDA-MB-231 breast,840 nM
same,TGI,MDA-MB-231 breast,> 100000 nM
same,GI50,COLO 205 colon,3220 nM
same,TGI,COLO 205 colon,11100 nM
same,GI50,RPMI-8226 leukemia,395 nM
same,TGI,RPMI-8226 leukemia,> 100000 nM
same,GI50,MALME-3M melanoma,283 nM
same,TGI,MALME-3M melanoma,2190 nM
same,GI50,SK-MEL-2 melanoma,314 nM
same,TGI,SK-MEL-2 melanoma,998 nM
same,GI50,SK-OV-3 ovarian,700 nM
same,TGI,SK-OV-3 ovarian,> 23700 nM
same,GI50,SN12C renal,317 nM
same,TGI,SN12C renal,> 100000 nM
same,GI50,SF-539 CNS,419 nM
same,TGI,SF-539 CNS,> 100000 nM
same,GI50,PC-3 prostate,335 nM
same,TGI,PC-3 prostate,> 100000 nM
same,GI50,KM12 colon,638 nM
same,TGI,KM12 colon,> 100000 nM
same,GI50,SW-620 colon,445 nM
same,TGI,SW-620 colon,> 100000 nM
same,GI50,NCI-H460 lung,336 nM
same,TGI,NCI-H460 lung,> 100000 nM
same,GI50,EKVX NSCLC,505 nM
same,TGI,EKVX NSCLC,> 100000 nM
same,GI50,BT-549 breast,283 nM
same,TGI,BT-549 breast,8560 nM
same,GI50,NCI-H23 lung,371 nM
same,TGI,NCI-H23 lung,> 100000 nM
same,GI50,SK-MEL-28 melanoma,711 nM
same,TGI,SK-MEL-28 melanoma,> 100000 nM
same,GI50,UO-31 renal,426 nM
same,TGI,UO-31 renal,> 32200 nM
same,GI50,NCI-H522 lung,415 nM
same,TGI,NCI-H522 lung,> 100000 nM
same,GI50,HOP-92 NSCLC,202 nM
same,TGI,HOP-92 NSCLC,592 nM
same,GI50,MOLT-4 leukemia,488 nM
same,TGI,MOLT-4 leukemia,> 100000 nM
same,GI50,OVCAR-5 ovarian,1420 nM
same,TGI,OVCAR-5 ovarian,> 100000 nM
same,GI50,UACC-257 melanoma,407 nM
same,TGI,UACC-257 melanoma,4720 nM
same,GI50,SF-268 CNS,453 nM
same,TGI,SF-268 CNS,> 100000 nM
same,GI50,SNB-19 CNS,390 nM
same,TGI,SNB-19 CNS,> 100000 nM
same,GI50,HS 578T breast,340 nM
same,TGI,HS 578T breast,> 100000 nM
same,GI50,TK-10 renal,3070 nM
same,TGI,TK-10 renal,> 100000 nM
same,GI50,K-562 leukemia,363 nM
same,TGI,K-562 leukemia,> 100000 nM
same,GI50,A498 renal,2220 nM
same,TGI,A498 renal,7220 nM
same,GI50,HL-60(TB) leukemia,410 nM
same,GI50,SK-MEL-5 melanoma,229 nM
same,TGI,SK-MEL-5 melanoma,530 nM
same,GI50,HCC-2998 colon,697 nM
same,TGI,HCC-2998 colon,> 100000 nM
same,GI50,MDA-MB-435,359 nM
same,TGI,MDA-MB-435,> 100000 nM
same,GI50,RXF 393 renal,522 nM
same,TGI,RXF 393 renal,> 41000 nM
same,GI50,NCI-H226 lung,1750 nM
same,TGI,NCI-H226 lung,> 29600 nM
same,GI50,U251 CNS,370 nM
same,TGI,U251 CNS,> 100000 nM
same,GI50,NCI/ADR-RES ovarian,1890 nM
same,TGI,NCI/ADR-RES ovarian,> 100000 nM
same,GI50,DU-145 prostate,472 nM
same,TGI,DU-145 prostate,> 100000 nM
same,GI50,CAKI-1 renal,605 nM
same,TGI,CAKI-1 renal,> 100000 nM
same,GI50,SR leukemia,395 nM
same,TGI,SR leukemia,> 100000 nM
same,GI50,OVCAR-4 ovarian,643 nM
same,TGI,OVCAR-4 ovarian,> 100000 nM
same,GI50,M14 melanoma,475 nM
same,TGI,M14 melanoma,> 85200 nM
same,GI50,LOX IMVI melanoma,383 nM
same,TGI,LOX IMVI melanoma,> 100000 nM
same,GI50,HCT-116 colon,334 nM
same,TGI,HCT-116 colon,> 100000 nM
same,GI50,786-0 renal,590 nM
same,TGI,786-0 renal,> 100000 nM
same,GI50,MCF7 breast,305 nM
same,GI50,CCRF-CEM leukemia,536 nM
same,TGI,CCRF-CEM leukemia,> 100000 nM
same,GI50,ACHN renal,432 nM
same,TGI,ACHN renal,> 100000 nM
same,GI50,IGROV1 ovarian,812 nM
same,TGI,IGROV1 ovarian,> 100000 nM
same,GI50,SNB-75 CNS,332 nM
same,TGI,SNB-75 CNS,> 100000 nM
same,GI50,HCT-15 colon,385 nM
same,TGI,HCT-15 colon,> 100000 nM
same,GI50,OVCAR-8 ovarian,381 nM
same,TGI,OVCAR-8 ovarian,> 100000 nM
same,GI50,A549 NSCLC,404 nM
same,TGI,A549 NSCLC,> 100000 nM
same,GI50,UACC-62 melanoma,517 nM
same,TGI,UACC-62 melanoma,15700 nM
same,GI50,HT29 colon,4000 nM
same,TGI,HT29 colon,> 100000 nM
same,GI50,T-47D breast,379 nM
same,TGI,T-47D breast,> 100000 nM
